The assay concerns Fluoroquinolone-Resistant Methicillin-Resistant Staphylococcus aureus Strain K950. As to the kind of experiment: MIC characterization of strain K950. In kind it is cell-based. The note with it: read-out: MIC (Minimum Inhibitory Concentration).

≈ marks a conversion by molar mass, not a printed value.

With `N=C(N)NCCCCC(=O)Nc1cc(C(F)(F)F)cc(NC(=O)c2cc(C(=O)Nc3cc(C(F)(F)F)cc(NC(=O)CCCCNC(=N)N)c3SCCN)ncn2)c1SCCN` [Oligomer 2], the MIC was determined as 0.25 µg/mL (≈ 0.273 µM).

(Values after patent US20130065818A1, “Arylamide Compounds And Compositions And Uses Thereof” (POLYMEDIX, priority 2006, published 2013).)
